Source: the CheMixHub drug solubility set

Experiment: xn = mol fraction of the nth substance listed, in the solute-free solvent

CN1CCN(C2=Nc3cc(Cl)ccc3Nc3ccccc32)CC1 + CS(C)=O + O
solubility (g/100 g solution)
Settings	293.15 K	298.15 K	303.15 K	308.15 K	313.15 K	318.15 K	323.15 K	328.15 K	333.15 K
x2 = 0.02501	0.0367	0.0478	0.0615	0.0795	0.0996	0.126	0.159	0.2	0.249
x2 = 0.05457	0.375	0.473	0.591	0.724	0.873	1.06	1.28	1.54	1.84
x2 = 0.09003	1.33	1.64	1.96	2.36	2.78	3.26	3.88	4.56	5.3
x2 = 0.1334	3.26	3.82	4.52	5.18	6.01	6.93	8.01	9.03	10.2
x2 = 0.1876	5.71	6.6	7.64	8.74	9.88	11.3	12.7	14.2	15.7
x2 = 0.2572	9.16	10.5	12.1	13.6	15.4	17.2	19.1	21.3	23.4
x2 = 0.3501	12.9	14.6	16.6	18.6	20.7	23.1	25.5	27.9	30.5
x2 = 0.4801	16.2	18.2	20.4	22.7	25.2	27.9	30.6	33.4	36.3
x2 = 0.6751	18.4	20.7	23.2	25.8	28.6	31.3	34.3	37.4	40.4

Cc1[nH]c(=O)c(C#N)cc1-c1ccncc1 + CN(C)C=O + O
solubility (g/100 g solution)
Settings	278.15 K	283.15 K	288.15 K	293.15 K	298.15 K	303.15 K	308.15 K	313.15 K	318.15 K	323.15 K
x2 = 0.02666	0.00219	0.00258	0.00301	0.00349	0.00402	0.00455	0.00511	0.00573	0.0064	0.00714
x2 = 0.05806	0.00523	0.00608	0.00705	0.00812	0.00928	0.0104	0.0117	0.013	0.0144	0.016
x2 = 0.09556	0.00909	0.0105	0.0121	0.014	0.0159	0.0179	0.02	0.0222	0.0245	0.0271
x2 = 0.1412	0.0128	0.0148	0.0171	0.0197	0.0224	0.0253	0.0283	0.0314	0.0347	0.0384
x2 = 0.1978	0.0159	0.0184	0.0208	0.0242	0.028	0.0318	0.0357	0.0397	0.0439	0.0488
x2 = 0.27	0.0186	0.0214	0.0246	0.029	0.0328	0.0371	0.0419	0.047	0.0524	0.0585
x2 = 0.3652	0.0209	0.0244	0.028	0.0328	0.0376	0.043	0.0487	0.0547	0.0613	0.068
x2 = 0.4965	0.023	0.0268	0.0315	0.0364	0.0416	0.0476	0.0545	0.0615	0.0685	0.0771
x2 = 0.6893	0.0242	0.0285	0.033	0.0391	0.0448	0.0505	0.0577	0.0654	0.0732	0.0835

Nc1cccc(S(=O)(=O)c2cccc(N)c2)c1 + CC(C)O + O
solubility (g/100 g solution)
Settings	283.15 K	288.15 K	293.15 K	298.15 K	303.15 K	308.15 K	313.15 K	318.15 K	323.15 K	328.15 K
x2 = 0.03225	0.0588	0.08	0.109	0.143	0.188	0.248	0.319	0.411	0.517	0.662
x2 = 0.06974	0.109	0.146	0.196	0.259	0.34	0.424	0.549	0.698	0.874	1.09
x2 = 0.1139	0.169	0.219	0.286	0.375	0.488	0.618	0.782	0.98	1.22	1.52
x2 = 0.1666	0.236	0.312	0.396	0.516	0.657	0.834	1.05	1.3	1.59	1.98
x2 = 0.2307	0.299	0.388	0.5	0.652	0.816	1.02	1.28	1.6	1.97	2.4
x2 = 0.3103	0.36	0.459	0.599	0.751	0.954	1.2	1.51	1.84	2.24	2.73
x2 = 0.4117	0.398	0.513	0.662	0.841	1.07	1.34	1.65	2.05	2.48	3.01
x2 = 0.5454	0.424	0.54	0.702	0.895	1.11	1.4	1.71	2.14	2.62	3.17
x2 = 0.7297	0.432	0.543	0.686	0.878	1.11	1.38	1.72	2.09	2.57	3.12

O=c1ccc(-c2ccccc2)n[nH]1 + CS(C)=O + O
solubility (g/100 g solution)
Settings	x2 = 0.02501	x2 = 0.05457	x2 = 0.09003	x2 = 0.1334	x2 = 0.1876	x2 = 0.2572	x2 = 0.3501	x2 = 0.4801	x2 = 0.6751
298.15 K	0.016	0.0442	0.124	0.333	0.899	2.36	6.21	14.3	30.9
303.15 K	0.0188	0.051	0.14	0.376	1.01	2.59	6.53	15.1	32.4
308.15 K	0.0223	0.0609	0.166	0.428	1.12	2.85	7.05	16.1	33.6
313.15 K	0.0267	0.0709	0.188	0.487	1.26	3.14	7.63	17.1	35.2
318.15 K	0.0334	0.0872	0.224	0.571	1.45	3.54	8.41	18.3	36.8

COc1cc2c(cc1OC)-c1cc3ccc(OC)c(OC)c3c[n+]1CC2.[Cl-] + CCO + O
solubility (g/100 g solution)
Settings	283.15 K	288.15 K	293.15 K	298.15 K	303.15 K	308.15 K	313.15 K	318.15 K	323.15 K	328.15 K
x2 = 0.04165	1.22	1.49	1.87	2.33	2.87	3.46	4.17	4.96	5.87	6.89
x2 = 0.08908	1.26	1.54	1.93	2.4	2.94	3.56	4.28	5.08	6.01	7.05
x2 = 0.1436	1.34	1.62	2.03	2.52	3.14	3.77	4.52	5.34	6.28	7.33
x2 = 0.2068	1.44	1.74	2.17	2.68	3.27	3.94	4.73	5.59	6.6	7.72
x2 = 0.2812	1.57	1.89	2.37	2.96	3.58	4.32	5.15	6.02	7.08	8.21
x2 = 0.3698	1.72	2.06	2.54	3.13	3.8	4.55	5.44	6.39	7.51	8.77
x2 = 0.4772	1.88	2.23	2.75	3.38	4.16	5.02	5.95	6.91	8.09	9.31
x2 = 0.6101	2.02	2.39	2.94	3.6	4.33	5.16	6.14	7.16	8.39	9.76
x2 = 0.7788	2.11	2.48	3.08	3.79	4.53	5.41	6.4	7.47	8.65	9.96
